Measured values: patent US12162863B2, “Modulators of stimulator of interferon genes (STING)” (RYVU THERAPEUTICS S.A., priority 2018, dated 2024)

Assays:
[1] = test system: NF-κB pathway in THP-1 dual cells; test: THP-1 Dual Reporter Assay, NF-κB pathway (SEAP reporter); assay type: cell-based; conditions: Homo sapiens, THP1-Dual, 18 h of stimulation, absorbance at 630 nm, read-out: THP1 Dual EC50 (μM) NFkB
Outline: (§1)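 THP-1 dual cells stimulated 18 h with STING agonist; medium then sampled. IRF pathway: luciferase (ISG54 promoter/ISRE) read as luminescence immediately after reagent addition. NF-κB pathway: SEAP (IFN-β minimal promoter/NF-κB elements) developed 2 h at 37 °C, absorbance at 630 nm.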

human STING = human STING (Homo sapiens, UniProt Q86WV6); test: Fluorescence Thermal Shift assay; assay type: binding; conditions: 50 μM compound; STING 0.1 mg/ml; 20 minutes preincubation; read-out: [hSTING] FTS, ΔTm [° C.] for 50 μM
Chain of human STING (Q86WV6 whole entry H232R): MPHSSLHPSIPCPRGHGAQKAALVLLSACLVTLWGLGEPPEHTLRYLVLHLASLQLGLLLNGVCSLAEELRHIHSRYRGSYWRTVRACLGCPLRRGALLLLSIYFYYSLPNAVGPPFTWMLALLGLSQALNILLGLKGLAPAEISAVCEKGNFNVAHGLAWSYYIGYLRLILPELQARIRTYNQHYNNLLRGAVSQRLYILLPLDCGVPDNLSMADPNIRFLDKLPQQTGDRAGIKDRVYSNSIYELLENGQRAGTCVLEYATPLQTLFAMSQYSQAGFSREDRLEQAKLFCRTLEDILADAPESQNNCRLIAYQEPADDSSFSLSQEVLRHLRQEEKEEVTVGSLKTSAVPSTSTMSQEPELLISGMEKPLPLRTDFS
Outline: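 Human STING at a final 0.1 mg/ml was preincubated with compound for 20 min in 50 mM Hepes, 150 mM NaCl, pH 7.5, then SyproOrange dye was added. Thermal unfolding ran from 25 to 99° C at 0.033° C/s, continuous ramp. Values are reported as ΔTm (° C).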

[2] = test system: interferon regulatory factor (IRF) pathway in THP-1 dual cells; test: THP-1 Dual Reporter Assay, IRF pathway (luciferase reporter); assay type: cell-based; conditions: Homo sapiens, THP1-Dual, 18 h of stimulation, luminescence
Outline: as §1

For O=c1c(CN(CCCn2ccccc2=O)Cc2ccncc2)coc2c1ccc1ccccc12 [Example 59, 1-{3-[({4-oxo-4H-benzo[h]chromen-3-yl}methyl)[(pyridin-4-yl)methyl]amino]propyl}-1,2-dihydropyridin-2-one], which EC50 [1] is on record?
Its EC50 is no more than 10 µM.

What about the ΔTm at 50 µM (human STING) of the same molecule?
The ΔTm at 50 µM was less than 2.5 °C.

What about the EC50 [2] of the same molecule?
The EC50 was no more than 10 µM.

Which EC50 [1] does the source give for CN(C)c1ccc(CCCN(Cc2ccncc2)Cc2coc3c(ccc4ccccc43)c2=O)cn1 [Example 60, 3-[({3-[6-(dimethylamino)pyridin-3-yl]propyl}[(pyridin-4-yl)methyl]amino)methyl]-4H-benzo[h]chromen-4-one] here?
Its EC50 is no less than 20 µM.

What about the ΔTm at 50 µM (human STING) of the same molecule?
The ΔTm at 50 µM was less than 2.5 °C.

And the EC50 [2]?
The EC50 was no less than 20 µM.

O=c1c(CN(CCCc2cncc3ccccc23)Cc2ccncc2)coc2c1ccc1ccccc12 [Example 61, 3-({[3-(isoquinolin-4-yl)propyl][(pyridin-4-yl)methyl]amino}methyl)-4H-benzo[h]chromen-4-one] was tested. Which EC50 [1] did it give?
The EC50 was no less than 20 µM.

What about the ΔTm at 50 µM (human STING) of the same molecule?
Its ΔTm at 50 µM is less than 2.5 °C.

What about the EC50 [2] of the same molecule?
Its EC50 is no less than 20 µM.

Which results are given for COc1ccc2ccc3c(=O)c(CN(CCCn4cnc5ccccc54)Cc4ccncc4)coc3c2c1 [Example 62, 3-({[3-(1H-1,3-benzodiazol-1-yl)propyl][(pyridin-4-yl)methyl]amino}methyl)-9-methoxy-4H-benzo[h]chromen-4-one]?
EC50 [1]: ≤ 10 µM; ΔTm at 50 µM (human STING): > 2.5 °C; EC50 [2]: ≤ 10 µM

What does the source list for Cc1oc2cc(Br)c(F)cc2c(=O)c1CN(CCCc1cccnc1)Cc1ccncc1 [Example 63, 7-bromo-6-fluoro-2-methyl-3-({[3-(pyridin-3-yl)propyl][(pyridin-4-yl)methyl]amino}methyl)-4H-chromen-4-one]?
EC50 [1]: ≤ 10 µM; ΔTm at 50 µM (human STING): > 2.5 °C; EC50 [2]: ≤ 10 µM

For Cc1oc2cc(Br)ccc2c(=O)c1CN(CCCc1cccnc1)Cc1ccncc1 [Example 64, 7-bromo-2-methyl-3-({[3-(pyridin-3-yl)propyl](pyridin-4-ylmethyl)amino}methyl)-4H-chromen-4-one], which EC50 [1] is on record?
The EC50 was no more than 10 µM.

What about the ΔTm at 50 µM (human STING) of the same molecule?
Its ΔTm at 50 µM is greater than 2.5 °C.

What about the EC50 [2] of the same molecule?
Its EC50 is no more than 10 µM.

What does the source list for Cc1oc2cc(N3CCN(C)CC3)c(F)cc2c(=O)c1CN(CCCc1cccnc1)Cc1ccncc1 [Example 65, 6-fluoro-2-methyl-7-(4-methylpiperazin-1-yl)-3-({[3-(pyridin-3-yl)propyl][(pyridin-4-yl)methyl]amino}methyl)-4-chromen-4-one]?
EC50 [1]: ≤ 10 µM; ΔTm at 50 µM (human STING): > 2.5 °C; EC50 [2]: ≤ 10 µM

With COc1ccc(CCCN(Cc2ccncc2)Cc2c(C)oc3c(C)c(C)ccc3c2=O)cn1 [Example 66, 3-({[3-(6-methoxypyridin-3-yl)propyl](pyridin-4-ylmethyl)amino}methyl)-2,7,8-trimethyl-4H-chromen-4-one] as the molecule, how does the EC50 [1] read?
Its EC50 is no more than 10 µM.

What about the ΔTm at 50 µM (human STING) of the same molecule?
Its ΔTm at 50 µM is less than 2.5 °C.

What about the EC50 [2] of the same molecule?
The EC50 was no more than 10 µM.

For Cc1oc2c(ccc3ccccc32)c(=O)c1CN(CCCn1ccnc1)Cc1ccncc1 [Example 67, 3-({[3-(1H-imidazol-1-yl)propyl][(pyridin-4-yl)methyl]amino}methyl)-2-methyl-4H-benzo[h]chromen-4-one], which EC50 [1] is on record?
The EC50 was no more than 10 µM.

And the ΔTm at 50 µM (human STING)?
Its ΔTm at 50 µM is greater than 2.5 °C.

What about the EC50 [2] of the same molecule?
The EC50 was no more than 10 µM.

What does the source list for O=c1c(CN(CCCn2cnc3ncccc32)Cc2ccncc2)coc2c1ccc1ccccc12 [Example 68, 3-{[(3-{1H-imidazo[4,5-b]pyridin-1-yl}propyl)(pyridin-4-ylmethyl)amino]methyl}-4H-benzo[h]chromen-4-one]?
EC50 [1]: ≤ 10 µM; ΔTm at 50 µM (human STING): > 2.5 °C; EC50 [2]: ≤ 10 µM

Which results are given for Cc1oc2cc(N3CCNCC3)c(F)cc2c(=O)c1CN(CCCc1cccnc1)Cc1ccncc1 [Example 69, 6-fluoro-2-methyl-7-(piperazin-1-yl)-3-({[3-(pyridin-3-yl)propyl][(pyridin-4-yl)methyl]amino}methyl)-4H-chromen-4-one]?
EC50 [1]: ≤ 10 µM; ΔTm at 50 µM (human STING): > 2.5 °C; EC50 [2]: ≤ 10 µM

How did the EC50 [1] turn out when Cc1oc2cc(N3CCOCC3)c(F)cc2c(=O)c1CN(CCCc1cccnc1)Cc1ccncc1 [Example 70, 6-fluoro-2-methyl-7-(morpholin-4-yl)-3-({[3-(pyridin-3-yl)propyl][(pyridin-4-yl)methyl]amino}methyl)-4H-chromen-4-one] was run?
Its EC50 is no more than 10 µM.

And the ΔTm at 50 µM (human STING)?
Its ΔTm at 50 µM is greater than 2.5 °C.

What about the EC50 [2] of the same molecule?
The EC50 was no more than 10 µM.

O=c1c(CN(CCCn2ccnc2)Cc2ccncc2)coc2cc(-c3cc[nH]n3)ccc12 [Example 71, 3-({[3-(1H-imidazol-1-yl)propyl](pyridin-4-ylmethyl)amino}methyl)-7-(1H-pyrazol-3-yl)-4H-chromen-4-one] was tested. Which EC50 [1] did it give?
The EC50 was 10 to 20 µM.

And the ΔTm at 50 µM (human STING)?
Its ΔTm at 50 µM is greater than 2.5 °C.

And the EC50 [2]?
The EC50 was no more than 10 µM.

For CC(CCn1cnc2ccccc21)N(Cc1ccncc1)Cc1coc2c(ccc3ccccc32)c1=O (stereo not drawn) [Example 72, 3-({[4-(1H-1,3-benzodiazol-1-yl)butan-2-yl](pyridin-4-ylmethyl)amino}methyl)-4H-benzo[h]chromen-4-one], which EC50 [1] is on record?
Its EC50 is no more than 10 µM.

And the ΔTm at 50 µM (human STING)?
The ΔTm at 50 µM was less than 2.5 °C.

What about the EC50 [2] of the same molecule?
The EC50 was no more than 10 µM.

What does the source list for Cc1oc2cc(Br)c(F)cc2c(=O)c1CN(CCCn1cnc2cncnc21)Cc1ccncc1 [Example 73, 7-bromo-6-fluoro-2-methyl-3-({[3-(9H-purin-9-yl)propyl][(pyridin-4-yl)methyl]amino}methyl)-4H-chromen-4-one]?
EC50 [1]: ≤ 10 µM; ΔTm at 50 µM (human STING): > 2.5 °C; EC50 [2]: 10 to 20 µM

Which results are given for O=c1c(CN(CCCn2ccnc2)Cc2ccncc2)c[nH]c2ccccc12 [Example 74, 3-({[3-(1H-imidazol-1-yl)propyl][(pyridin-4-yl)methyl]amino}methyl)-1,4-dihydroquinolin-4-one]?
EC50 [1]: ≥ 20 µM; ΔTm at 50 µM (human STING): < 2.5 °C; EC50 [2]: ≥ 20 µM

What does the source list for Cc1ccc2c(=O)c(CN(CCCn3cnc4c(=O)[nH]cnc43)Cc3ccncc3)c(C)oc2c1C [Example 75, 9-(3-{[(pyridin-4-yl)methyl][(2,7,8-trimethyl-4-oxo-4H-chromen-3-yl)methyl]amino}propyl)-6,9-dihydro-1H-purin-6-one]?
EC50 [1]: 10 to 20 µM; ΔTm at 50 µM (human STING): > 2.5 °C; EC50 [2]: ≤ 10 µM

With COc1cc2ncn(CCCN(Cc3ccncc3)Cc3coc4c(ccc5ccccc54)c3=O)c2cc1OC [Example 76, 3-({[3-(5,6-dimethoxy-1H-1,3-benzodiazol-1-yl)propyl](pyridin-4-ylmethyl)amino}methyl)-4H-benzo[h]chromen-4-one] as the molecule, how does the EC50 [1] read?
The EC50 was no more than 10 µM.

What about the ΔTm at 50 µM (human STING) of the same molecule?
The ΔTm at 50 µM was greater than 2.5 °C.

What about the EC50 [2] of the same molecule?
Its EC50 is no more than 10 µM.

COc1cc(CN(CCCc2cccnc2)Cc2c(C)oc3cc(N4CCOCC4)c(F)cc3c2=O)ccn1 [Example 77, 6-fluoro-3-({[(2-methoxypyridin-4-yl)methyl][3-(pyridin-3-yl)propyl]amino}methyl)-2-methyl-7-(morpholin-4-yl)-4H-chromen-4-one] was tested. Which EC50 [1] did it give?
The EC50 was no more than 10 µM.

What about the ΔTm at 50 µM (human STING) of the same molecule?
Its ΔTm at 50 µM is less than 2.5 °C.

What about the EC50 [2] of the same molecule?
The EC50 was no more than 10 µM.

With COc1cc(CN(CCCn2cnc3cncnc32)Cc2c(C)oc3cc(Br)c(F)cc3c2=O)ccn1 [Example 78, 7-bromo-6-fluoro-3-({[(2-methoxypyridin-4-yl)methyl][3-(9H-purin-9-yl)propyl]amino}methyl)-2-methyl-4H-chromen-4-one] as the molecule, how does the EC50 [1] read?
Its EC50 is no more than 10 µM.

And the ΔTm at 50 µM (human STING)?
Its ΔTm at 50 µM is greater than 2.5 °C.

What about the EC50 [2] of the same molecule?
The EC50 was no more than 10 µM.

How did the EC50 [1] turn out when Cc1oc2cc(N3CCN(C)CC3)c(F)cc2c(=O)c1CN(CCCn1cnc2cncnc21)Cc1ccncc1 [Example 79, 6-fluoro-2-methyl-7-(4-methylpiperazin-1-yl)-3-({[3-(9H-purin-9-yl)propyl][(pyridin-4-yl)methyl]amino}methyl)-4H-chromen-4-one] was run?
Its EC50 is no more than 10 µM.

What about the ΔTm at 50 µM (human STING) of the same molecule?
The ΔTm at 50 µM was greater than 2.5 °C.

What about the EC50 [2] of the same molecule?
The EC50 was no more than 10 µM.

Which EC50 [1] does the source give for Cc1oc2cc(C(=O)O)c(F)cc2c(=O)c1CN(CCCc1cccnc1)Cc1ccncc1 [Example 80, 6-fluoro-2-methyl-4-oxo-3-({[3-(pyridin-3-yl)propyl][(pyridin-4-yl)methyl]amino}methyl)-4H-chromene-7-carboxylic acid] here?
The EC50 was no less than 20 µM.

And the ΔTm at 50 µM (human STING)?
Its ΔTm at 50 µM is less than 2.5 °C.

And the EC50 [2]?
The EC50 was no less than 20 µM.

Which EC50 [1] does the source give for Cc1ccc2c(=O)c(CN(CCCn3cnc4c(N)ncnc43)Cc3ccncc3)c(C)oc2c1C [Example 81, 3-({[3-(6-amino-9H-purin-9-yl)propyl][(pyridin-4-yl)methyl]amino}methyl)-2,7,8-trimethyl-4H-chromen-4-one] here?
Its EC50 is 10 to 20 µM.

What about the ΔTm at 50 µM (human STING) of the same molecule?
The ΔTm at 50 µM was greater than 2.5 °C.

And the EC50 [2]?
Its EC50 is no less than 20 µM.

COc1cc(CN(CCCn2cnc3ccccc32)Cc2cn(C)c3ccccc3c2=O)ccn1 [Example 82, 3-({[3-(1H-1,3-benzodiazol-1-yl)propyl][(2-methoxypyridin-4-yl)methyl]amino}methyl)-1-methyl-1,4-dihydroquinolin-4-one] was tested. Which EC50 [1] did it give?
The EC50 was no more than 10 µM.

What about the ΔTm at 50 µM (human STING) of the same molecule?
The ΔTm at 50 µM was greater than 2.5 °C.

And the EC50 [2]?
The EC50 was no more than 10 µM.

COc1cc(CN(Cc2coc3c(ccc4ccccc43)c2=O)C(C)CCc2cccnc2)ccn1 (stereo not drawn) [Example 83, 3-({[(2-methoxypyridin-4-yl)methyl][4-(pyridin-3-yl)butan-2-yl]amino}methyl)-4H-benzo[h]chromen-4-one] was tested. Which EC50 [1] did it give?
Its EC50 is no more than 10 µM.

What about the ΔTm at 50 µM (human STING) of the same molecule?
Its ΔTm at 50 µM is less than 2.5 °C.

And the EC50 [2]?
Its EC50 is no more than 10 µM.

Which EC50 [1] does the source give for COc1cc(CN(CCCn2cnc3cncnc32)Cc2c(C)oc3cc(N4CCN(C)CC4)c(F)cc3c2=O)ccn1 [Example 84, 6-fluoro-2-methyl-7-(4-methylpiperazin-1-yl)-3-({[3-(9H-purin-9-yl)propyl][(2-methoxypyridin-4-yl)methyl]amino}methyl)-4H-chromen-4-one] here?
The EC50 was no more than 10 µM.

And the ΔTm at 50 µM (human STING)?
Its ΔTm at 50 µM is greater than 2.5 °C.

What about the EC50 [2] of the same molecule?
The EC50 was 10 to 20 µM.

With O=c1c(CN(CCCn2cnc3ccccc32)Cc2ccncc2F)coc2c1ccc1ccccc12 [Example 85, 3-({[3-(1H-1,3-benzodiazol-1-yl)propyl][(3-fluoropyridin-4-yl)methyl]amino}methyl)-4H-benzo[h]chromen-4-one] as the molecule, how does the EC50 [1] read?
The EC50 was no less than 20 µM.

And the ΔTm at 50 µM (human STING)?
Its ΔTm at 50 µM is less than 2.5 °C.

And the EC50 [2]?
The EC50 was no less than 20 µM.
